The values that follow are results of earlier work, collected in patent EP4613273A1, “TREATMENT OF BONE LOSS” (priority 2024, dated 2025).

Structures are written as SMILES.

The data set deals with T1, cathepsin K (Homo sapiens, UniProt P43235).
T1 construct: host or cells: patients with postmenopausal osteoporosis (endogenous enzyme)
T1 sequence (P43235 115-329): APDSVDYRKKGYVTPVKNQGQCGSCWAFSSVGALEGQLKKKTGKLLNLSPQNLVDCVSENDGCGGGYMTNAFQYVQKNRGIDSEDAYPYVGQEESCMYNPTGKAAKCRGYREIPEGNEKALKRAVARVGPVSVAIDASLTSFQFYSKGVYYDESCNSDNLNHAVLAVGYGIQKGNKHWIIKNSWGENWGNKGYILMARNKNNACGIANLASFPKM
The settings on record: cited from earlier work.

With `CC(C)(F)C[C@H](N[C@@H](c1ccc(-c2ccc(S(C)(=O)=O)cc2)cc1)C(F)(F)F)C(=O)NC1(C#N)CC1` [Odanacatib], the “adverse effects leading to termination of development” value is recorded as “cardio-cerebrovascular adverse effects”.
